Measurements taken from US20230257468A1, “CIS-Binding Siglec Agonists and Related Compositions And Methods” (The Board of Trustees of the Leland Stanford Junior …, priority 2020, published 2023).

Columns and labels:
Assay type in all cases: cell-based, human
neutrophils = experiment: Oxidative burst (ROS) in neutrophils
PADI4 substrate H3 = experiment: Western blot of H3 citrullination in neutrophils
primary neutrophils = experiment: Live-cell imaging NETosis assay, primary neutrophils; conditions: healthy neutrophils in vitro
Protocol: (a-c) Primary neutrophils were cotreated with R848 (10 μM) and glycopolypeptide (500 nM) in IMDM supplemented 0.5% hiFBS containing the membrane impermeable DNA intercalators Cytotox Green or Red (250 nM). Images were acquired by fluorescence microscopy every 15 min for 12 h. The area of all green fluorescent objects >300 μm^2 was quantified and the total area was averaged across three images per well. Relative NETosis was determined by normalizing to the maximal NET area from R848 treatment alone (t=8 h). (a) Representative phase contrast and fluorescence images from t=8 h. Scale bars indicate 40 μm. (b) Quantitation of NETosis over time as area under the curve in (c). Error bars represent SD. (c) NET formation and degradation as a function of time. Error bands represent SEM. (d) Treatment of R848-stimulated neutrophils with various glycopolypeptides. Error bars represent SD. […] Statistics were determined by two-way ANOVA (b) or one-way ANOVA (c,d,f). * p<0.05; ** p<0.01; *** p<0.001; **** p<0.0001.
TLR agonists were assayed using the live-cell imaging techniques in which freshly isolated neutrophils are cultured in low-serum media in the presence of a fluorogenic and membrane impermeable DNA-intercalating dye (Cytotox Green). Upon genomic DNA-externalization by NETosis, dye intercalates and fluorescence increases. […]

dHL-60 cells = experiment: NETosis in neutrophil-like dHL-60 cells
Protocol: (a-c) Primary neutrophils were cotreated with R848 (10 μM) and glycopolypeptide (500 nM) in IMDM supplemented 0.5% hiFBS containing the membrane impermeable DNA intercalators Cytotox Green or Red (250 nM). Images were acquired by fluorescence microscopy every 15 min for 12 h. The area of all green fluorescent objects >300 μm^2 was quantified and the total area was averaged across three images per well. Relative NETosis was determined by normalizing to the maximal NET area from R848 treatment alone (t=8 h). (a) Representative phase contrast and fluorescence images from t=8 h. Scale bars indicate 40 μm. (b) Quantitation of NETosis over time as area under the curve in (c). Error bars represent SD. (c) NET formation and degradation as a function of time. Error bands represent SEM. (d) Treatment of R848-stimulated neutrophils with various glycopolypeptides. Error bars represent SD. (e) pS9L is a mucin-like glycopolypeptide that bears high affinity and specific ligands for Siglec-9 and is functionalized with a membrane-tethering lipid tail. (f) HL-60 cells were transfected with siRNAs against SIGLEC9 (encoding Siglec-9), PTPN6 (encoding SHP-1), or a scrambled control and then grown for two days. Cells were then cotreated with R848 (10 μM) and vehicle or pS9L (500 nM). […] Statistics were determined by two-way ANOVA (b) or one-way ANOVA (c,d,f). * p<0.05; ** p<0.01; *** p<0.001; **** p<0.0001. […]

## O=S(=O)(O)c1ccc2cc(N=Nc3cc(S(=O)(=O)O)c4cccnc4c3O)ccc2c1 [NSC-87877]
neutrophils
  inhibition of pS9L-induced oxidative burst: the oxidative burst was inhibited

## CCCCCCCCCCCCCC(=O)O[C@@H]1[C@@H](C)[C@@]2(O)[C@@H](C=C(CO)C[C@]3(O)C(=O)C(C)=C[C@@H]23)[C@@H]2C(C)(C)[C@]12OC(C)=O [PMA, phorbol-12-myristate-13-acetate]
PADI4 substrate H3
  citrullination of H3: only yields moderate citrullination

## CCOCc1nc2c(N)nc3ccccc3c2n1CC(C)(C)O [R848]
Primary neutrophils
  induction of NETosis: sufficient to induce NETosis
PADI4 substrate H3
  citrullination of H3: rapidly induced citrullination at R2, R8, and R17
dHL-60 cells
  induction of NETosis: induced NETosis
